According to patent US8877351B2, “Organometallic complex, and lighting apparatus, and electronic device using the organometallic complex” (Semiconductor Energy Laboratory Co., Ltd., priority 2008, dated 2014):

Assay: solubility determination in organic solvents
Type: physicochemical
Excerpt: It is confirmed that Ir(dbq-tBuP)2(acac) can be dissolved in each of 2-ethoxyethanol, 1,4-dioxane, chloroform, and toluene.

solubility (in chloroform): ≥ 1.2 mg/mL
solubility (in toluene): ≥ 1.2 mg/mL
Solubility x (solvent: Chloroform): 1.2 ≦ x g/L
Solubility x (solvent: Ethanol): x < 0.6 g/L
Solubility x (solvent: Isopropyl alcohol): x < 0.6 g/L
Solubility x (solvent: Toluene): 1.2 ≦ x g/L
SMILES: CC(=O)C=C(C)[O][Ir]([c]1cc(C(C)(C)C)ccc1-c1cnc2c3ccccc3c3ccccc3c2n1)[c]1cc(C(C)(C)C)ccc1-c1cnc2c3ccccc3c3ccccc3c2n1 [Ir(dbq-tBuP)2(acac), (acetylacetonato)bis{2-(4-tert-butylphenyl)-dibenzo[f,h]quinoxalinato}iridium(III)]
